Measurements: patent US9809602B2, “Compounds for treating viral infections” (INSTITUT PASTEUR KOREA, priority 2014, dated 2017)

system: genotype 1/2 chimeric cell culture derived HCV (HCVcc); assay: Genotype 1/2 chimeric HCVcc assay (nano-luciferase, HCV replication); assay type: cell-based; conditions: Hepatitis C virus
Protocol: Naïve Huh-7.5 target cells were plated at 2400 cells/well in 25 μL of culture media in 384-well plates (Greiner bio-one, μ clear black). After overnight incubation, compounds serially diluted in 10 μL of cell culture media were added. After 2 h compound treatment, cells were inoculated with 40 μL of genotype 1/2 chimeric cell culture derived HCV (HCVcc) which express structural proteins of an HCV genotype 1a isolate (TN accession number EF621489) and non-structural proteins of HCV genotype 2a (JFH-1) with nano-luciferase reporter. At 72 h post infection, nano-luciferase activity (Nano-Glo™, Promega) and cellular ATP (Cell titer-Glo™, Promega) were measured as a marker for HCV replication and cytotoxicity, respectively. EC50 and CC50 were calculated by non-linear regression analyzing using GraphPad Prism (GraphPad Software).

Row | Compound | EC50 [nM]
1 | O=C(NCCCN1CCN(C(=O)c2ccccc2)CC1)c1ccc(Oc2ccccc2)cc1 [Compound 1039] | > 10000
2 | O=C(NCCCN1CCC(N2CCCCC2)CC1)c1ccc(N2CCCCC2)cc1 [Compound 1030] | 1000 to 10000
3 | O=C(NCCCN1CCC(N2CCCCC2)CC1)c1ccc(-c2cccc(OC(F)(F)F)c2)cc1 [Compound 1145] | 100 to 1000
4 | O=C(NCCCN1CCC(N2CCCCC2)CC1)c1cccc(Oc2cccc(C(F)(F)F)c2)c1 [Compound 1107] | 100 to 1000
5 | CC(C)(C)OC(=O)N1CCC(C2CCN(CCCNC(=O)c3ccc(Oc4ccccc4)cc3)CC2)CC1 [Compound 1073] | 100 to 1000
6 | O=C(NCCCN1CCC(N2CCCCC2)CC1)c1ccc(-c2ccccc2OC(F)(F)F)cc1 [Compound 1149] | 100 to 1000
7 | O=C(Nc1cccc(CN2CCC(N3CCCCC3)CC2)c1)c1ccc(Oc2ccccc2)cc1 [Compound 1075] | 100 to 1000
8 | O=C(NCCCOc1ccc(N2CCCCC2)cc1)c1ccc(Oc2ccccc2)cc1 [Compound 1051] | > 10000
9 | O=C(NCCCN1CCC(N2CCCCC2)CC1)c1ccc(-c2cccs2)cc1 [Compound 1023] | 100 to 1000
10 | O=C(CCCN1CCC(N2CCCCC2)CC1)Nc1ccc(Oc2ccccc2)cc1 [Compound 1052] | 100 to 1000
11 | O=C(NC/C=C/CN1CCC(N2CCCCC2)CC1)c1ccc(Oc2ccccc2)cc1 [Compound 1076] | 100 to 1000
12 | O=C(NCCCN1CCC(N2CCCCC2)CC1)c1ccc(-c2ccc3occc3c2)cc1 [Compound 1126] | 100 to 1000
13 | CC(C)(C)c1ccc(-c2ccc(C(=O)NCCCN3CCC(N4CCCCC4)CC3)cc2)cc1 [Compound 1124] | 100 to 1000
14 | O=C(NCCCN1CCC(N2CCCCC2)CC1)c1cccc(Oc2ccccc2)c1 [Compound 1031] | 1000 to 10000
15 | O=S(=O)(NCCCN1CCC(N2CCCCC2)CC1)c1ccc(-c2ccccc2)cc1 [Compound 1090] | 100 to 1000
16 | O=C(NCCCN1CCC(N2CCCCC2)CC1)c1ccc(-c2ccccc2)cc1 [Compound 1005] | 100 to 1000
17 | O=C(NCCCN1CCC(N2CCCCC2)CC1)c1ccc(-c2ccc(O)cc2)cc1 [Compound 1127] | 1000 to 10000
18 | O=C(NCCCN1CCCC1)c1ccc(C2CCCCC2)cc1 [Compound 1006] | 1000 to 10000
19 | CN(C)C(=O)c1ccc(-c2ccc(C(=O)NCCCN3CCC(N4CCCCC4)CC3)cc2)cc1 [Compound 1120] | > 10000
20 | CN(CCCN1CCC(N2CCCCC2)CC1)C(=O)c1ccc(Oc2ccccc2)cc1 [Compound 1047] | 1000 to 10000
21 | O=C(NCCCN1CCC(N2CCCCC2)CC1)c1ccc(-c2ccncc2)cc1 [Compound 1024] | > 10000
22 | O=C(NCCCN1CCC(N2CCCCC2)CC1)Nc1ccc(-c2ccc(C(F)(F)F)cc2)cc1 [Compound 1118] | 100 to 1000
23 | O=C(NCCCCCN1CCC(N2CCCCC2)CC1)c1ccc(Oc2ccccc2)cc1 [Compound 1087] | 100 to 1000
24 | O=C(NCCCN1CCC(N2CCCCC2)CC1)c1ccc(-c2ccc3cc[nH]c3c2)cc1 [Compound 1121] | 100 to 1000
25 | O=C(NCCCN1CCC(N2CCCCC2)CC1)c1ccc(-c2cccc(Cl)c2)cc1 [Compound 1141] | 100 to 1000

same assay, conditions: Hepatitis C virus, Huh7.5, 72 h

Row | Compound | EC50 [nM]
26 | CN1CCc2c(sc(-n3cccc3)c2CNC(=O)Nc2sc3c(c2C(=O)OC(C)(C)C)CCOC3)C1 [Compound 236] | < 100
27 | CCOC(=O)c1c(NC(=O)NCc2c(N3CCOCC3)sc3c2CCNC3)sc2c1CCCC2 [Compound 54] | 100 to 1000
28 | N#Cc1c(NC(=O)NCc2c(-n3cccc3)sc3c2CCCC3)sc2c1CCCC2 [Compound 6] | 1000 to 10000
29 | Cn1ccc(-c2sc3c(c2CNC(=O)Nc2sc4c(c2C(=O)OC(C)(C)C)CCCC4)CCNC3)c1 [Compound 182] | < 100
30 | CCOC(=O)c1c(NC(=O)NCc2csc(CN(C)C)c2C)sc2c1CCCC2 [Compound 188] | < 100
31 | CC(C)(C)OC(=O)c1c(NC(=O)NCc2c(-n3cccc3)sc3c2CCN(CCC(F)(F)F)C3)sc2c1CCCC2 [Compound 241] | < 100
32 | CN1CCc2c(sc(C(F)(F)F)c2CNC(=O)Nc2sc3c(c2C(=O)OC(C)(C)C)CCCC3)C1 [Compound 184] | < 100
33 | O=C(NCc1c(-n2cccc2)sc2c1CCNC2)Nc1sc2c(c1C(=O)OC1CCCCC1)CCCC2 [Compound 273] | < 100
34 | CN1CCc2c(sc(C(F)(F)F)c2CNC(=O)Nc2sc3c(c2C(=O)OC(C)(C)C)CCCCC3)C1 [Compound 281] | < 100
35 | CCOC(=O)c1c(N(C)C(=O)NCc2c(-n3cccc3)sc3c2CCN(CC)C3)sc2c1CCCC2 [Compound 55] | 1000 to 10000
36 | CNCc1sc(-n2cccc2)c(CNC(=O)Nc2sc3c(c2C(=O)OC(C)(C)C)CCCC3)c1C [Compound 158] | 100 to 1000
37 | CCOC(=O)c1c(NC(=O)NCc2c(-n3cccc3)sc3c2CCN(CC)C3)sc2c1CCN(CC)C2 [Compound 26] | < 100
38 | CCN1CCc2c(sc(Br)c2CNC(=O)Nc2sc3c(c2C(=O)OC2CCCC2)CCCC3)C1 [Compound 263] | < 100
39 | CCOC(=O)c1c(NC(=O)NCc2csc3c2CCCC3)sc2c1CCCC2 [Compound 35] | < 100
40 | CC(C)(C)OC(=O)c1c(NC(=O)NCc2c(-c3ccsc3)sc3c2CCNC3)sc2c1CCCC2 [Compound 203] | < 100
41 | CCOC(=O)c1cc(C(C)C)sc1NC(=O)NCc1c(-n2cccc2)sc2c1CCN(CC)C2 [Compound 24] | 100 to 1000
42 | COC(=O)c1c(NC(=O)NCc2c(C(F)(F)F)sc3c2CC[N+](C)(C)C3)sc2c1CCCC2 [Compound 223] | 1000 to 10000
43 | CCOC(=O)c1c(NC(=O)NCc2c(N3C(=O)CCC3=O)sc3c2CCN(CC)C3)sc2c1CCCC2 [Compound 31] | 100 to 1000
44 | CC(C)(C)OC(=O)c1c(NC(=O)NCc2c(Br)sc3c2CC[N+](C)(C)C3)sc2c1CCCCC2 [Compound 255] | < 100
45 | CCOC(=O)c1c(NC(=O)NCc2c(-n3cccc3)sc3c2CCNC3)sc2c1CCC(F)(F)C2 [Compound 75] | < 100
46 | CCN1CCc2c(sc(-n3cccc3)c2CNC(=O)Nc2sc3c(c2-c2nnc(C)o2)CCCC3)C1 [Compound 43] | < 100
47 | CC(C)(C)OC(=O)c1c(NC(=O)NCc2c(-c3ccc(C(F)(F)F)cc3)sc3c2CCNC3)sc2c1CCCC2 [Compound 146] | < 100
48 | CCOC(=O)c1c(NC(=O)NCc2c(-n3cccc3)sc3c2CCCNC3)sc2c1CCCC2 [Compound 243] | < 100
49 | O=C(NCc1c(Br)sc2c1CCNC2)Nc1sc2c(c1C(=O)OC1CCCC1)CCCC2 [Compound 262] | < 100

Row | Compound | EC50 [nM]
50 | CC(C)(C)OC(=O)c1c(NC(=O)NCc2c(N3CCCC3)sc3c2CCNC3)sc2c1CCCC2 [Compound 143] | < 100
51 | C#CCN1CCc2c(sc(-n3cccc3)c2CNC(=O)Nc2sc3c(c2C(=O)OC(C)(C)C)CCCC3)C1 [Compound 325] | < 100
52 | CCOC(=O)c1c(NC(=O)NCc2c(C(F)(F)F)sc3c2CCN(C(=O)C(C)N)C3)sc2c1CCCC2 (stereo not shown) [Compound 315] | < 100
53 | CCOC(=O)c1sc2c(c1NC(=O)NCc1c(-n3cccc3)sc3c1CCN(CC)C3)CCCC2 [Compound 109] | 1000 to 10000
54 | CCOC(=O)c1c(NC(=O)NCc2c(-n3cccc3)sc3c2CCNC3)sc(C)c1C [Compound 70] | 100 to 1000
55 | CCN1CCc2c(sc(-n3cccc3)c2CNC(=O)Nc2sc3c(c2C(=O)NCCOCCOCCN)CCCC3)C1 [Compound 89] | 1000 to 10000
56 | CCOC(=O)c1c(NC(=O)NCc2c(Br)sc3c2CCNC3)sc2c1CCC(F)(F)C2 [Compound 218] | < 100
57 | CC(C)(C)OC(=O)c1c(NC(=O)NCc2c(Br)sc3c2CCNC3)sc2c1CCCCC2 [Compound 225] | < 100
58 | CCOC(=O)c1c(NC(=O)NCc2c(-c3ccccc3)sc3c2CCNC3)sc2c1CCCC2 [Compound 62] | 100 to 1000
59 | CCOC(=O)c1c(NC(=O)NCc2c(Br)sc3c2CCNC3)sc2c1CCCC2 [Compound 81] | < 100
60 | CCOC(=O)c1c(NC(=O)NCc2c(-n3cccc3)sc3c2CCN(Cc2ccccc2)C3)sc(C)c1C [Compound 28] | < 100
61 | CC1CCc2sc(NC(=O)NCc3c(-n4cccc4)sc4c3CCN(C)C4)c(C(=O)OC(C)(C)C)c2C1 (stereo not shown) [Compound 231] | < 100
62 | CCN1CCc2c(sc(-n3cccc3)c2CNC(=O)Nc2sc3c(c2C(=O)O)CCCC3)C1 [Compound 16] | > 10000
63 | CCN1CCc2c(sc(-n3cccc3)c2CNC(=O)Nc2sc3c(c2C(=O)OC(C)(C)C)C(C)CCC3)C1 (stereo not shown) [Compound 292] | < 100
64 | CCOC(=O)c1c(NC(=O)NCc2c(-n3cccc3)sc3c2CCNC3)sc2c1CCNC2 [Compound 64] | 1000 to 10000
65 | O=C(NCc1c(-c2ccoc2)sc2c1CCNC2)Nc1sc2c(c1C(=O)OC1CCOC1)CCOC2 (stereo not shown) [Compound 337] | < 100
66 | Cc1sc(NC(=O)NCc2c(C(F)(F)F)sc3c2CCN(C)C3)c(C(=O)OC(C)C)c1C [Compound 295] | < 100
67 | CCOC(=O)c1c(NC(=O)NCc2c(-n3cccc3)sc3c2CCN(Cc2ccc(OC)cc2)C3)sc2c1CCCC2 [Compound 18] | < 100
68 | CCOC(=O)c1c(NC(=O)NCc2c(C(F)(F)F)sc3c2CCNC3)sc2c1CC(C)CC2C (stereo not shown) [Compound 208] | < 100
69 | O=C(NCc1c(C(F)(F)F)sc2c1CCNC2)Nc1sc2c(c1C(=O)OC1CCOC1)CCCC2 (stereo not shown) [Compound 326] | < 100
70 | CC(C)(C)OC(=O)c1c(NC(=O)NCc2c(-c3ccccc3C(F)(F)F)sc3c2CCNC3)sc2c1CCCC2 [Compound 161] | 100 to 1000
71 | CCN1CCc2c(sc(-n3cccc3)c2CNC(=O)Nc2cccs2)C1 [Compound 15] | > 10000
72 | CCOC(=O)c1c(NC(=O)NCc2c(-n3cccc3)sc3c2CCN(C)C3)sc2c1CC(C)CC2C (stereo not shown) [Compound 206] | < 100
73 | Cc1cncc(-c2sc3c(c2CNC(=O)Nc2sc4c(c2C(=O)OC(C)(C)C)CCCC4)CCNC3)c1 [Compound 322] | 100 to 1000
